Assay results from paper PMC9865890, “N-Derivatives of (Z)-Methyl 3-(4-Oxo-2-thioxothiazolidin-5-ylidene)methyl)-1H-indole-2-carboxylates as Antimicrobial Agents—In Silico and In Vitro Evaluation” (Pharmaceuticals, 2023).
In brackets after ≈: the same amount, converted by molar mass. Like-named read-outs stand apart in the source and are kept apart here.

How the values were obtained:
Assay type in all cases: cell-based
P. aeruginosa = assay: Antibacterial microdilution (MIC/MBC); conditions: Pseudomonas aeruginosa, P.a. (P. aeruginosa); for MIC: read-out: MIC
Method: (§1) The synthesized compounds (Table 1) were evaluated for their antibacterial activity against a panel of eight species using a microdilution method with ampicillin and streptomycin as reference drugs. […] The order of activity can be presented as: 8 > 11 > 2 > 1 > 12 > 3 > 17 > 7 > 5 > 13 > 14 > 16 > 9 > 4 = 6 > 15 > 10. […] Cloacae. […] The most sensitive bacteria appeared to be En. cloacae, while E. coli was the most resistant one, followed by M. flavus.
(§2) The following Gram-negative bacteria: Escherichia coli (ATCC 35210), Enterobacter cloacae (clinical isolate), Salmonella typhimurium (ATCC 13311), as well as Gram-positive bacteria: Listeria monocytogenes (NCTC 7973), Bacillus cereus (clinical isolate), and Staphylococcus aureus (ATCC 6538) were used. The organisms were obtained from the Mycological Laboratory, Department of Plant Physiology, Institute for Biological Research “Siniša Stankovic”, Belgrade, Serbia. The minimum inhibitory (MIC) and minimum bactericidal (MBC) concentrations were determined by the modified microdilution method, as previously reported.

[1] = system: Bacillus cereus (clinical isolate); assay: Antibacterial microdilution (MIC/MBC); conditions: Bacillus cereus, B.c. (B. cereus); for MIC: read-out: MIC
Method: as §1, §2

[2] = system: Listeria monocytogenes (NCTC 7973); assay: Antibacterial microdilution (MIC/MBC); conditions: L.m. (L. monocytogenes)
Method: as §1, §2

M. flavus = assay: Antibacterial microdilution (MIC/MBC); conditions: Micrococcus flavus; M.f. (M. flavus)
Method: as §1, §2

[3] = system: Escherichia coli (ATCC 35210); assay: Antibacterial microdilution (MIC/MBC); conditions: Escherichia coli, ATCC35210, E. coli; for MIC: read-out: MIC
Method: as §1, §2

[4] = system: Staphylococcus aureus (ATCC 6538); assay: Antibacterial microdilution (MIC/MBC); conditions: S.a. (S. aureus)
Method: as §1, §2

[5] = system: Enterobacter cloacae (clinical isolate); assay: Antibacterial microdilution (MIC/MBC); conditions: En.cl (En. cloacae)
Method: as §1, §2

[6] = system: Salmonella typhimurium (ATCC 13311); assay: Antibacterial microdilution (MIC/MBC); conditions: S.t. (S. typhimurium)
Method: as §1, §2

[7] = system: Aspergillus niger (ATCC 6275); assay: Antifungal bioassay (MIC/MFC); conditions: ATCC6275, A.n. (A. niger)
Method: (§3) For the antifungal bioassays, six fungi were used: […] The organisms were obtained from the Mycological Laboratory, Department of Plant Physiology, Institute for Biological Research “Siniša Stankovic”, Belgrade, Serbia. All experiments were performed in duplicate.

[8] = system: Aspergillus fumigatus (ATCC 1022); assay: Antifungal bioassay (MIC/MFC); conditions: ATCC1022, A.f. (A. fumigatus)
Method: as §3

A. ochraceus = assay: Antifungal bioassay (MIC/MFC); conditions: Aspergillus ochraceus, A.o. (A. ochraceus); for MIC: read-out: MIC
Method: as §3

[9] = system: Aspergillus versicolor (ATCC 11730); assay: Antifungal bioassay (MIC/MFC); conditions: ATCC11730, A.v. (A. versicolor)
Method: as §3

P. ochrochloron = assay: Antifungal bioassay (MIC/MFC); conditions: for MIC: P.o. (P. ochrochloron; text: P. ochramensis); for MFC: P.o. (P. ochrochloron)
Method: as §3

[10] = system: Trichoderma viride (IAM 5061); assay: Antifungal bioassay (MIC/MFC); conditions: T.v. (T. viride)
Method: as §3

[11] = system: Penicillium funiculosum (ATCC 36839); assay: Antifungal bioassay (MIC/MFC); conditions: Talaromyces funiculosus, ATCC36839; P.f. (P. funiculosum)
Method: as §3

[12] = system: Penicillium verrucosum var. cyclopium (food isolate); assay: Antifungal bioassay (MIC/MFC)
Method: For the antifungal bioassays, six fungi were used: Aspergillus niger (ATCC 6275), Aspergillus fumigatus (ATCC 1022), Aspergillus versicolor (ATCC 11730), Penicillium funiculosum (ATCC 36839), Trichoderma viride (IAM 5061), and Penicillium verrucosum var. cyclopium (food isolate). The organisms were obtained from the Mycological Laboratory, Department of Plant Physiology, Institute for Biological Research “Siniša Stankovic”, Belgrade, Serbia. All experiments were performed in duplicate.

[13] = Listeria monocytogenes, NCTC7973
[14] = Listeria monocytogenes, NCTC7973, read-out: MIC
[15] = Staphylococcus aureus, ATCC6538
[16] = Staphylococcus aureus, ATCC6538, read-out: MIC
[17] = Enterobacter cloacae, read-out: MIC
[18] = Salmonella enterica, read-out: MIC
[19] = Penicillium ochrochloron, read-out: MIC
[20] = Trichoderma viride, IAM5061, read-out: MIC

Row | Structure (SMILES) | MBC (P. aeruginosa) [µg/mL] | MIC (P. aeruginosa) [µg/mL] | MBC [1] [µg/mL] | MIC [1] [µg/mL] | MBC [2, 13] [µg/mL] | MIC [2, 14] [µg/mL] | MBC (M. flavus) [µg/mL] | MIC (M. flavus) [µg/mL] | MBC [3] [µg/mL] | MIC [3] [µg/mL] | MBC [4, 15] [µg/mL] | MIC [4, 16] [µg/mL] | MBC ([5]; Enterobacter cloacae) [µg/mL] | MIC [5, 17] [µg/mL] | MBC ([6]; Salmonella enterica) [µg/mL] | MIC [6, 18] [µg/mL] | MFC [7] [µg/mL] | MIC [7] [µg/mL] | MFC [8] [µg/mL] | MIC [8] [µg/mL] | also measured
1 | COC(=O)c1[nH]c2ccccc2c1/C=C1\SC(=S)N(Cc2ccco2)C1=O [Compound 7, (Z)-methyl 3-((3-(furan-2-ylmethyl)-4-oxo-2-thioxothiazolidin-5-ylidene)methyl)-1H-indole-2-carboxylate] | 60 ± 6 (≈ 151 µM) | 30 ± 10 (≈ 75.3 µM) | 60 ± 6 (≈ 151 µM) | 30 ± 10 (≈ 75.3 µM) | 60 ± 6 (≈ 151 µM) | 30 ± 10 (≈ 75.3 µM) | 60 ± 6 (≈ 151 µM) | 45 ± 3 (≈ 113 µM) | 60 ± 6 (≈ 151 µM) | 30 ± 10 (≈ 75.3 µM) | 30 ± 10 (≈ 75.3 µM) | 15 (≈ 37.6 µM) | 30 ± 10 (≈ 75.3 µM) | 15 ± 9 (≈ 37.6 µM) | 30 ± 10 (≈ 75.3 µM) | 15 (≈ 37.6 µM) | 15 ± 3 (≈ 37.6 µM) | 8 ± 0.6 (≈ 20.1 µM) | 120 ± 40 (≈ 301 µM) | 60 ± 6 (≈ 151 µM) | MIC [4]: 15 ± 9 µg/mL (≈ 37.6 µM); MIC [6]: 15 ± 9 µg/mL (≈ 37.6 µM); MFC (A. ochraceus): 15 ± 3 µg/mL (≈ 37.6 µM); MIC (A. ochraceus): 8 ± 0.6 µg/mL (≈ 20.1 µM); MFC [9]: 15 ± 3 µg/mL (≈ 37.6 µM); MIC [9]: 8 ± 0.6 µg/mL (≈ 20.1 µM); MIC (P. ochrochloron): 8 ± 0.6 µg/mL (≈ 20.1 µM); MFC (P. ochrochloron; Penicillium ochrochloron): 15 ± 3 µg/mL (≈ 37.6 µM); MIC (P. ochrochloron; [19]): 8 µg/mL (≈ 20.1 µM); MIC [10]: 4 ± 1 µg/mL (≈ 10 µM); MFC ([10]; Trichoderma viride, IAM5061): 8 ± 0.6 µg/mL (≈ 20.1 µM); MIC [10, 20]: 4 µg/mL (≈ 10 µM); MFC [11]: 30 ± 10 µg/mL (≈ 75.3 µM); MIC [11]: 15 ± 3 µg/mL (≈ 37.6 µM); MFC [12]: 30 ± 10 µg/mL (≈ 75.3 µM); MIC [12]: 15 ± 3 µg/mL (≈ 37.6 µM)
2 | COC(=O)c1[nH]c2ccc(F)cc2c1/C=C1\SC(=S)N(C(C(=O)O)C(C)C)C1=O (stereo not shown) [Compound 8, (Z)-2-(5-((5-fluoro-2-(methoxycarbonyl)-1H-indol-3-yl)methylene)-4-oxo-2-thioxothiazolidin-3-yl)-3-methylbutanoic acid] | 8 ± 0.6 (≈ 18.3 µM) | 4 ± 5 (≈ 9.16 µM) | 60 ± 6 (≈ 137 µM) | 30 ± 10 (≈ 68.7 µM) | 30 ± 10 (≈ 68.7 µM) | 15 (≈ 34.4 µM) | 60 ± 6 (≈ 137 µM) | 30 ± 10 (≈ 68.7 µM) | 15 ± 9 (≈ 34.4 µM) | 8 ± 1 (≈ 18.3 µM) | 60 ± 6 (≈ 137 µM) | 30 ± 10 (≈ 68.7 µM) | 8 ± 0.6 (≈ 18.3 µM) | 4 (≈ 9.16 µM) | 15 ± 9 (≈ 34.4 µM) | 8 ± 9 (≈ 18.3 µM) | 30 ± 10 (≈ 68.7 µM) | 15 ± 3 (≈ 34.4 µM) | 120 ± 40 (≈ 275 µM) | 60 ± 6 (≈ 137 µM) | MIC [2]: 15 ± 1 µg/mL (≈ 34.4 µM); MIC [5]: 4 ± 5 µg/mL (≈ 9.16 µM); MFC (A. ochraceus): 15 ± 3 µg/mL (≈ 34.4 µM); MIC (A. ochraceus): 8 ± 0.6 µg/mL (≈ 18.3 µM); MFC [9]: 30 ± 10 µg/mL (≈ 68.7 µM); MIC [9]: 15 ± 3 µg/mL (≈ 34.4 µM); MFC (P. ochrochloron; Penicillium ochrochloron): 30 ± 10 µg/mL (≈ 68.7 µM); MIC (P. ochrochloron; [19]): 15 ± 3 µg/mL (≈ 34.4 µM); MFC [11]: 30 ± 10 µg/mL (≈ 68.7 µM); MIC [11]: 15 ± 3 µg/mL (≈ 34.4 µM); MFC [12]: 120 ± 40 µg/mL (≈ 275 µM); MIC [12]: 60 ± 6 µg/mL (≈ 137 µM)
3 | CC(=O)N1CCN(c2ccc(OCC3COC(Cn4ccnc4)(c4ccc(Cl)cc4Cl)O3)cc2)CC1 (stereo not shown) [Ketoconazole, reference compound] |  |  |  |  |  |  |  |  |  |  |  |  |  |  |  |  | 500 ± 4 (≈ 941 µM) | 200 ± 10 (≈ 376 µM) | 500 ± 1 (≈ 941 µM) | 200 ± 10 (≈ 376 µM) | MFC (A. ochraceus): 500 ± 6 µg/mL (≈ 941 µM); MIC (A. ochraceus): 250 ± 50 µg/mL (≈ 470 µM); MFC [9]: 500 ± 2 µg/mL (≈ 941 µM); MIC [9]: 200 ± 10 µg/mL (≈ 376 µM); MFC (P. ochrochloron; Penicillium ochrochloron): 3500 ± 30 µg/mL (≈ 6590 µM); MIC (P. ochrochloron; [19]): 2500 ± 300 µg/mL (≈ 4700 µM); MFC ([10]; Trichoderma viride, IAM5061): 1500 ± 90 µg/mL (≈ 2820 µM); MIC [10, 20]: 1000 ± 100 µg/mL (≈ 1880 µM); MFC [11]: 500 ± 3 µg/mL (≈ 941 µM); MIC [11]: 200 ± 10 µg/mL (≈ 376 µM); MFC [12]: 300 ± 10 µg/mL (≈ 565 µM); MIC [12]: 200 ± 10 µg/mL (≈ 376 µM)
4 | [H]/N=C(/N)N[C@H]1[C@H](O)[C@@H](O)[C@H](O[C@@H]2O[C@@H](C)[C@](O)(C=O)[C@H]2O[C@@H]2O[C@@H](CO)[C@H](O)[C@@H](O)[C@@H]2NC)[C@@H](N/C(N)=N\[H])[C@@H]1O [Streptomycin, reference compound] | 200 (≈ 344 µM) | 100 ± 50 (≈ 172 µM) | 3 ± 0.5 (≈ 5.16 µM) | 1.5 ± 0.2 (≈ 2.58 µM) | 300 ± 30 (≈ 516 µM) | 150 ± 30 (≈ 258 µM) | 300 ± 30 (≈ 516 µM) | 200 (≈ 344 µM) | 200 (≈ 344 µM) | 100 ± 50 (≈ 172 µM) | 200 (≈ 344 µM) | 100 (≈ 172 µM) | 300 ± 30 (≈ 516 µM) | 200 ± 5 (≈ 344 µM) | 200 ± 9 (≈ 344 µM) | 100 ± 50 (≈ 172 µM) |  |  |  |  | 
